# Data: patent publication US11607383B2, “Conductive polymer microneedle arrays for electronically-controlled drug release” (University of Washington, priority 2019, dated 2023)
# What was measured:
# BV2 murine microglia = assay type: cell-based; settings: subdural solution, DC experiment, 3 days incubation
# Method: Bioactivity of electrically released drug was tested in an in vitro neuroinflammation model, in which drugs were released into wells of activated BV2 murine microglia. Healthy BV2 cells were seeded in 12-well plates at a density of 100,000 cells/well, in 1.6 mL of Dulbecco's modified eagle media (DMEM, Gibco) with 4.5 g/L D-glucose, 584 mg/L L-glutamine, and 110 mg/L sodium pyruvate (Invitrogen). The DMEM was supplemented with 5% fetal bovine serum (Invitrogen) and 2% anti-mycotic/anti-biotic (Invitrogen). Following seeding, the cells were incubated at 37° C. overnight to allow for settling and adhesion. Cells in activated treatment groups were activated by the replacement of media with fresh DMEM containing 0.005% interferon gamma (Ifn-γ, Invitrogen) and 1% lipopolysaccharide (LPS, ThermoFisher). Unactivated controls received normal fresh DMEM. Cells were then incubated for 1 hour before application of treatment in groups of n=6, in order to simulate realistic conditions in which there is a duration between traumatic SCI occurrence and access to treatment. […]
# Cell viability was measured using an MTS assay (CellTiter 96® AQueous One Solution Cell Proliferation Assay, Promega). […] The incubation was followed by detection of absorbance at 490 nm. The MTS absorbance in each group was normalized to the absorbance of the unactivated group.
# [1] = tested on: activated BV2 murine microglia; assay: In vitro neuroinflammation assay (NO by Griess, cytokines by Luminex); assay type: cell-based; settings: for NO release normalized to viable cells: DC experiment
# Method: Bioactivity of electrically released drug was tested in an in vitro neuroinflammation model, in which drugs were released into wells of activated BV2 murine microglia. Healthy BV2 cells were seeded in 12-well plates at a density of 100,000 cells/well, in 1.6 mL of Dulbecco's modified eagle media (DMEM, Gibco) with 4.5 g/L D-glucose, 584 mg/L L-glutamine, and 110 mg/L sodium pyruvate (Invitrogen). The DMEM was supplemented with 5% fetal bovine serum (Invitrogen) and 2% anti-mycotic/anti-biotic (Invitrogen). Following seeding, the cells were incubated at 37° C. overnight to allow for settling and adhesion. Cells in activated treatment groups were activated by the replacement of media with fresh DMEM containing 0.005% interferon gamma (Ifn-γ, Invitrogen) and 1% lipopolysaccharide (LPS, ThermoFisher). Unactivated controls received normal fresh DMEM. Cells were then incubated for 1 hour before application of treatment in groups of n=6, in order to simulate realistic conditions in which there is a duration between traumatic SCI occurrence and access to treatment.
# Treatment was applied transdurally from microneedles into the cell media though the transdural insert model as previously described in the In Vitro Transdural Release section. Diagrams of experimental conditions can be found in FIGS. 5A-5G. Microneedles were similarly applied manually, then underwent a potentiostatic or cyclic electrical stimulation. Direct current potential was applied for only 2 minutes to minimize electrical imbalance applied to the cells, while delivering sufficient drug to achieve therapeutic effect. Cyclic voltammetry was applied for 15 cycles, equating to 10 minutes. Epidural drug solution controls were similarly applied to the neuroinflammation model by pipetting over the transdural insert. In addition, a subdural solution control was introduced to the neuroinflammation studies in which the Dexa solution is applied directly to the cell media, bypassing the transdural insert.
# Following 3 days of incubation, cell media was assayed for markers of inflammation. Free radical nitric oxide (NO) was quantified using a Griess reagent kit (Invitrogen) that detects NO reduced to nitrites in cell medias. Colorimetric NO quantification was performed following the protocols provided in the Griess reagent kit. Pro-inflammatory cytokines were quantified using a Luminex Magpix Multiplexing assay (Millipore). Cytokines quantified include interleukin-1-beta (IL-1β), interleukin-6 (IL-6), and tumor necrosis factor alpha (TNF-α). Cells treated in the CV stimulated experiment were additionally quantified for the release of monocyte chemoattractant protein 1 (MCP-1). The Luminex multiplexing assays were performed following the protocol provided in the kit.
# [2] = epidural solution, CV experiment
smiles,measurement,setting,value
"C[C@@H]1C[C@H]2[C@@H]3CCC4=CC(=O)C=C[C@]4(C)[C@@]3(F)[C@@H](O)C[C@]2(C)[C@@]1(O)C(=O)COP(=O)(O)O [Dexa solution, dexamethasone phosphate]",relative cell viability (MTS),BV2 murine microglia,"slight decreases in viability, though not significant"
same,MCP-1 release normalized for viable cells,[1]; [2],did not see the same decrease
same,NO release normalized for viable cells,[1]; [2],did not see similar reductions in NO release
same,NO release normalized to viable cells,[1]; epidural solution,did not demonstrate the same decrease
same,NO release normalized to viable cells,[1]; subdural solution,significant decrease
